From patent US20250345446A1 (Draupnir Bio ApS, priority 2022, published 2025)
Where two headings read alike, the source gives them in different places. Residues, ends and D or L forms follow the SMILES beside them. *: point of attachment. Biotin = O=C1N[C@H]2[C@H](CS[C@H]2CCCCC(=O)*)N1

B1: Biotin-GGSGGGGSGGGFQLL-OH (peptide)
peptide: Biotin-GGSGGGGSGGGFQLL-OH
SMILES: CC(C)C[C@H](NC(=O)[C@H](CC(C)C)NC(=O)[C@H](CCC(N)=O)NC(=O)[C@H](Cc1ccccc1)NC(=O)CNC(=O)CNC(=O)CNC(=O)[C@H](CO)NC(=O)CNC(=O)CNC(=O)CNC(=O)CNC(=O)[C@H](CO)NC(=O)CNC(=O)CNC(=O)CCCC[C@@H]1SC[C@@H]2NC(=O)N[C@@H]21)C(=O)O
B2: Biotin-GGSGGGGSGGGRQLL-OH (peptide)
peptide: Biotin-GGSGGGGSGGGRQLL-OH
SMILES: CC(C)C[C@H](NC(=O)[C@H](CC(C)C)NC(=O)[C@H](CCC(N)=O)NC(=O)[C@H](CCCNC(=N)N)NC(=O)CNC(=O)CNC(=O)CNC(=O)[C@H](CO)NC(=O)CNC(=O)CNC(=O)CNC(=O)CNC(=O)[C@H](CO)NC(=O)CNC(=O)CNC(=O)CCCC[C@@H]1SC[C@@H]2NC(=O)N[C@@H]21)C(=O)O

How the values were obtained:
[1] = molecular target: T1, soluble ectodomain of sortilin-6his (Homo sapiens, UniProt Q99523, V650M); assay: MST binding to soluble ectodomain of sortilin-6his; settings: MST, read-out: KD score, binding to sortilin (Kd)
T1 construct: the soluble ectodomain of sortilin-6his is measured by microscale thermophoresis (MST)

[2] = test system: HEK293 cells expressing full length sortilin receptor; assay: Cellular uptake of NA650 in HEK293/sortilin cells; type: cell-based; settings: Table 6; NA650 (100 nM), 3 h, biotin warhead compounds
Description: Cellular uptake of NA650 was investigated in HEK293 cells expressing full length sortilin receptor (Petersen et. al.). Cells were seeded in poly-L-lysine coated 96-well plates (Perkin Elmer) (40K/well) in 50 μL culture medium (DMEM (Lonza)+10% FBS (SigmaAldrich)+1% penicillin-streptomycin (SigmaAldrich)+1% GlutaMAX (Gibco)+100 μg/mL Zeocin (Invitrogen)) and incubated overnight in cell incubator (37° C., humidified, 5% CO2).
Culture medium was replaced with assay medium (DMEM (Lonza)+10% fetal bovine serum (SigmaAldrich)+1% penicillin-streptomycin (SigmaAldrich)+1% GlutaMAX (Gibco)) containing NA650 (Invitrogen) (100 nM) (Thermo Fischer) and peptidic bifunctional compounds (9.8 nM to 10 μM). Cells were incubated for 3 h in cell incubator before they were washed in dPBS (Bionordika). The DyLight650 signal in the cell layer was detected using a fluorescence plate reader (BMG Labtech Clariostar).
Cellular uptake of NA650 was investigated in HEK293 cells expressing full length sortilin receptor using a methodology analogous to example 3.

[3] = molecular target: T2, Streptavidin-d2 and Sortilin-6His (UniProt P22629+Q99523, V650M); assay: TR-FRET ternary complex formation streptavidin / small molecule bifunctional compound / sortilin; type: binding; settings: Table 5; 5 μM-0.6 pM, […] incubation
T2 construct: ternary complex formation composed of streptavidin, bifunctional compound and sortilin-6his

[4] = molecular target: streptavidin, bifunctional compound and sortilin-6his (UniProt P22629+Q99523, V650M); assay: TR-FRET ternary complex formation streptavidin / bifunctional peptide / sortilin-6his; settings: Table 2; […] incubation, HTRF ratio 665/620 nm
Description: In these experiments, the compounds of interest were titrated over 24-point in a 384-well TTP LVDS plate (SPT Labtech) to a final buffer composition of 50 mM Bis-Tris Propane pH 8, 50 mM NaCl, 0.05% Tween20, with or without 10% DMSO using a Mosquito LV pipetting robot (SPT Labtech).
The reaction was allowed to incubate for 2.5 hours at room temperature, at which point the HTRF signal ratio at 665/620 nm was determined using a plate reader (ClarioStar, BMG Labtech). All reactions were run in triplicates and data was represented as HTRF ratio as a function of bifunctional compound concentration.

Sortilin-6His [5] = molecular target: T3, Sortilin-6His (Homo sapiens (Human), UniProt Q99523 78-755); assay: MST on labelled sortilin-6his ectodomain; KD score: ++ <100 nM, + 100-2000 nM
T3 construct: In MST it was labelled non-covalently with RED-tris-NTA; also called soluble ectodomain of sortilin-6his; fluorescent sortilin-6his

Sortilin-6His [6] = molecular target: T3, Sortilin-6His; assay: TR-FRET (HTRF) ternary complex streptavidin-d2 / biotin-peptide / sortilin-6His; AUC score: + <5000, ++ >5000
[7] = Table 4, small molecule bifunctional compounds
[8] = Table 1, biotin-linker-peptide bifunctional compounds

T1 sequence (Q99523 with tags, fused parts or gaps V650M): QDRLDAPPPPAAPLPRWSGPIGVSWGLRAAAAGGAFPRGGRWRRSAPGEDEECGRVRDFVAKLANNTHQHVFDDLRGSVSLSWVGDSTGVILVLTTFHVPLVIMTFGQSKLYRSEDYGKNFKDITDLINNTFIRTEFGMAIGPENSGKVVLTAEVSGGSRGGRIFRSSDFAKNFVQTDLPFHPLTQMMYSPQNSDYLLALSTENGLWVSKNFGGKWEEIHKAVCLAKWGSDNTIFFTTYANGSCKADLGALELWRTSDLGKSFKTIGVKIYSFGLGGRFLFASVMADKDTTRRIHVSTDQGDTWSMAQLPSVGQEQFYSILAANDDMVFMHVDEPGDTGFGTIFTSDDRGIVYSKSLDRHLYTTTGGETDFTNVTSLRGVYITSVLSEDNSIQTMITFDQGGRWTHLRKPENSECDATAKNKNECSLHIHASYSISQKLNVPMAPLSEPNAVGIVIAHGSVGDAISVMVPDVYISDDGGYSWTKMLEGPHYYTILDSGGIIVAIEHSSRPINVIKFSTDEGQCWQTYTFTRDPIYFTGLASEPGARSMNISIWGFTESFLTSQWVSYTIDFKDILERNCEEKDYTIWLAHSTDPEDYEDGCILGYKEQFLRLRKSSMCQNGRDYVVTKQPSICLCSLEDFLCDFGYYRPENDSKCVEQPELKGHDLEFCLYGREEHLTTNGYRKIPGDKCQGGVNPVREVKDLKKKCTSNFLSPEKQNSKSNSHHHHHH
T3 sequence (Q99523 78-755 V650M limits assumed): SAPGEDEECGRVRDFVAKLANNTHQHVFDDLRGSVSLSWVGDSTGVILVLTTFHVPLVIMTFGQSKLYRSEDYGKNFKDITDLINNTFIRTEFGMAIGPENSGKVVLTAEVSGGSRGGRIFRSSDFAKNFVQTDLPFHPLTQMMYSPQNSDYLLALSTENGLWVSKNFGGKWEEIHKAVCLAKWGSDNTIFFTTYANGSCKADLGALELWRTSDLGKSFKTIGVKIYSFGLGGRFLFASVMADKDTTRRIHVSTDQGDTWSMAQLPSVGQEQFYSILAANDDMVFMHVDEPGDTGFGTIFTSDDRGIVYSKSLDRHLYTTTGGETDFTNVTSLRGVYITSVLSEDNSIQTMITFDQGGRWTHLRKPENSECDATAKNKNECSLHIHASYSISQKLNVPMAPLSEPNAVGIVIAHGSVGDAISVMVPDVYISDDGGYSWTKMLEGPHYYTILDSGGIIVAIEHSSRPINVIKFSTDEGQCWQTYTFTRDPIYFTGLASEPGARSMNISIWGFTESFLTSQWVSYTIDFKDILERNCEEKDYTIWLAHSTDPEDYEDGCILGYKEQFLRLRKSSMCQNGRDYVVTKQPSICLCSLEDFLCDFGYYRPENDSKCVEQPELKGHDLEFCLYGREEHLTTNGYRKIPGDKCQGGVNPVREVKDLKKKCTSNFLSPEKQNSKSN

Molecule	Kd [1, 7] [nM]	AUC score, target internalization [2]	AUC score, ternary complex formation [3]	Kd [1, 8] [nM]	AUC score, TR-FRET measurements of ternary complex formation [4]	other results
CC(C)(C)CC[C@H](NC(=O)c1ccc(Oc2cccc(OCCOCCOCCOCCOCCOCCNC(=O)CCCC[C@@H]3SC[C@@H]4NC(=O)N[C@@H]43)c2)nc1)C(=O)O (stereo in doubt) [BF025]	10 to 250	+ (AUC < 100)	+ (AUC < 25.000)			
CC(C)(C)CC[C@H](NC(=O)c1ccc(Oc2cccc(OCCOCCOCCOCCOCCOCCOCCOCCNC(=O)CCCC[C@@H]3SC[C@@H]4NC(=O)N[C@@H]43)c2)nc1)C(=O)O [BF017, (2S)-2-[[6-[3-[2-[2-[2-[2-[2-[2-[2-[2-[5-[(3aS,4S,6aR)-2-oxo-1,3,3a,4,6,6a-hexahydrothieno[3,4-d]imidazol-4-yl]pentanoylamino]ethoxy]ethoxy]ethoxy]ethoxy]ethoxy]ethoxy]ethoxy]ethoxy]phenoxy]pyridine-3-carbonyl]amino]-5,5-dimethyl-hexanoic acid]	1 to 10	++ (AUC > 100)	+ (AUC < 25.000)			
CC(C)(C)CC[C@H](NC(=O)c1ccc(Oc2cccc(OCCOCCOCCOCCOCCOCCOCCNC(=O)CCCC[C@@H]3SC[C@@H]4NC(=O)N[C@@H]43)c2)nc1)C(=O)O [BF019, (2S)-2-[[6-[3-[2-[2-[2-[2-[2-[2-[2-[5-[(3aS,4S,6aR)-2-oxo-1,3,3a,4,6,6a-hexahydrothieno[3,4-d]imidazol-4-yl]pentanoyl-amino]ethoxy]ethoxy]ethoxy]ethoxy]ethoxy]ethoxy]ethoxy]phenoxy]pyridine-3-carbonyl]amino]-5,5-dimethyl-hexanoic acid]	1 to 10	+ (AUC < 100)	+ (AUC < 25.000)			
CC(C)(C)CC[C@H](NC(=O)c1ccc(Oc2cccc3c(C(=O)NCCCNC(=O)CCOCCOCCOCCOCCNC(=O)CCCC[C@@H]4SC[C@@H]5NC(=O)N[C@@H]54)cccc23)nc1)C(=O)O [BF020, (2S)-2-[[6-[[5-[3-[3-[2-[2-[2-[2-[5-[(3aS,4S,6aR)-2-oxo-1,3,3a,4,6,6a-hexahydrothieno[3,4-d]imidazol-4-yl]pentanoylamino]ethoxy]ethoxy]ethoxy]ethoxy]propanoylamino]propylcarbamoyl]-1-naphthyl]oxy]pyridine-3-carbonyl]amino]-5,5-dimethyl-hexanoic acid]	10 to 250	++ (AUC > 100)	++ (AUC > 25.000)			
CC(C)(C)CC[C@H](NC(=O)c1ccc(Oc2cccc(C(=O)NCCOCCOCCOCCOCCOCCOCCNC(=O)CCCC[C@@H]3SC[C@@H]4NC(=O)N[C@@H]43)c2)nc1)C(=O)O [BF023, (2S)-2-[[6-[3-[2-[2-[2-[2-[2-[2-[2-[5-[(3aS,4S,6aR)-2-oxo-1,3,3a,4,6,6a-hexahydrothieno[3,4-d]imidazol-4-yl]pentanoylamino]ethoxy]ethoxy]ethoxy]ethoxy]ethoxy]ethoxy]ethylcarbamoyl]phenoxy]pyridine-3-carbonyl]amino]-5,5-dimethyl-hexanoic acid]	10 to 250	+ (AUC < 100)	+ (AUC < 25.000)			
CC(C)C[C@H](NC(=O)[C@H](CC(C)C)NC(=O)[C@H](CCC(N)=O)NC(=O)[C@H](CCCNC(=N)N)NC(=O)CNC(=O)[C@H](CO)NC(=O)CNC(=O)CNC(=O)CNC(=O)CNC(=O)[C@H](CO)NC(=O)CNC(=O)CNC(=O)CCCC[C@@H]1SC[C@@H]2NC(=O)N[C@@H]21)C(=O)O [compound 141] (Biotin-GGSGGGGSGRQLL-OH)				< 100	+ (AUC < 5000)	
CC(C)C[C@H](NC(=O)[C@H](CC(C)C)NC(=O)[C@H](CCC(N)=O)NC(=O)[C@H](CCCNC(=N)N)NC(=O)[C@H](CO)NC(=O)CNC(=O)CNC(=O)CNC(=O)CNC(=O)[C@H](CO)NC(=O)CNC(=O)CNC(=O)CNC(=O)CNC(=O)[C@H](CO)NC(=O)CNC(=O)CNC(=O)CCCC[C@@H]1SC[C@@H]2NC(=O)N[C@@H]21)C(=O)O [compound 142] (Biotin-GGSGGGGSGGGGSRQLL-OH)				< 100	+ (AUC < 5000)	
CC(C)C[C@H](NC(=O)[C@H](CC(C)C)NC(=O)[C@H](CCC(N)=O)NC(=O)[C@H](Cc1ccccc1)NC(=O)CNC(=O)[C@H](CO)NC(=O)CNC(=O)CNC(=O)CNC(=O)CNC(=O)[C@H](CO)NC(=O)CNC(=O)CNC(=O)CCCC[C@@H]1SC[C@@H]2NC(=O)N[C@@H]21)C(=O)O [compound 145] (Biotin-GGSGGGGSGFQLL-OH)				< 100	+ (AUC < 5000)	
CC(C)C[C@H](NC(=O)[C@H](CC(C)C)NC(=O)[C@H](CCC(N)=O)NC(=O)[C@H](Cc1ccccc1)NC(=O)[C@H](CO)NC(=O)CNC(=O)CNC(=O)CNC(=O)CNC(=O)[C@H](CO)NC(=O)CNC(=O)CNC(=O)CNC(=O)CNC(=O)[C@H](CO)NC(=O)CNC(=O)CNC(=O)CCCC[C@@H]1SC[C@@H]2NC(=O)N[C@@H]21)C(=O)O [compound 146] (Biotin-GGSGGGGSGGGGSFQLL-OH)				100 to 2000	++ (AUC > 5000)	
CC(C)C[C@H](NC(=O)[C@H](CC(C)C)NC(=O)[C@H](CCC(N)=O)NC(=O)[C@H](Cc1ccccc1)NC(=O)CNC(=O)CNC(=O)CNC(=O)[C@H](CO)NC(=O)CNC(=O)CNC(=O)CNC(=O)CNC(=O)[C@H](CO)NC(=O)CNC(=O)CNC(=O)CCCC[C@@H]1SC[C@@H]2NC(=O)N[C@@H]21)C(=O)O [compound 148] (Biotin-GGSGGGGSGGGFQLL-OH)				100 to 2000	++ (AUC > 5000)	
CC(C)C[C@H](NC(=O)[C@H](CC(C)C)NC(=O)[C@H](CCC(N)=O)NC(=O)[C@H](CCCNC(=N)N)NC(=O)CNC(=O)CNC(=O)CNC(=O)[C@H](CO)NC(=O)CNC(=O)CNC(=O)CNC(=O)CNC(=O)[C@H](CO)NC(=O)CNC(=O)CNC(=O)CCCC[C@@H]1SC[C@@H]2NC(=O)N[C@@H]21)C(=O)O [compound 149] (Biotin-GGSGGGGSGGGRQLL-OH)				100 to 2000	+ (AUC < 5000)	
B1						KD (Sortilin-6His [5]): 100 to 2000 nM; AUC of TR-FRET (HTRF ratio vs compound concentration) for ternary complex formation (Sortilin-6His [6]): > 5000 auc
B2						KD (Sortilin-6His [5]): 100 to 2000 nM; AUC of TR-FRET (HTRF ratio vs compound concentration) for ternary complex formation (Sortilin-6His [6]): < 5000 auc
